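48-hour exposure; five concentrations; linearly interpolated endpoints. GI50 = concentration required for 50% inhibition of growth.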 Active and inactive are the calls of the source. No stated cut-off is given here; in the data, active = GI50 up to about 1.1 µM and inactive = higher.
What was measured:
Test in all cases: inhibition of tumour cell growth, NCI panel, 48 h
[1] = system: 786-0
[2] = system: A498
[3] = system: A549
[4] = system: ACHN
[5] = system: BT-549
[6] = system: CAKI-1
[7] = system: CCRF-CEM
[8] = system: COLO 205
[9] = system: DU-145
[10] = system: EKVX
[11] = system: HCC 2998
[12] = system: HCT-116
[13] = system: HCT-15
[14] = system: HL-60
[15] = system: HOP-62
[16] = system: HOP-92
[17] = system: HT-29
[18] = system: Hs-578T
[19] = system: IGROV-1
[20] = system: K562
[21] = system: KM12
[22] = system: LOX IMVI
[23] = system: M14
[24] = system: MCF7
[25] = system: MDA-MB-231
[26] = system: MDA-MB-435
[27] = system: MDA-N
[28] = system: MOLT-4
[29] = system: Malme-3M
[30] = system: NCI-H226
[31] = system: NCI-H23
[32] = system: NCI-H460
[33] = system: NCI-H522
[34] = system: NCI/ADR-RES
[35] = system: OVCAR-3
[36] = system: OVCAR-4
[37] = system: OVCAR-5
[38] = system: OVCAR-8
[39] = system: PC-3
[40] = system: RPMI-8226
[41] = system: RXF 393
[42] = system: SF-268
[43] = system: SF-295
[44] = system: SF-539
[45] = system: SK-MEL-28
[46] = system: SK-MEL-2
[47] = system: SK-MEL-5
[48] = system: SK-OV-3
[49] = system: SN12C
[50] = system: SNB-19
[51] = system: SNB-75
[52] = system: SR
[53] = system: SW-620
[54] = system: T47D
[55] = system: TK-10
[56] = system: U-251
[57] = system: UACC-257
[58] = system: UACC-62
[59] = system: UO-31

C[N+](C)(C)CC1CCCCCCCCCCC1=O (stereo not drawn)
GI50 [1]: > 100 µM (inactive)
GI50 [2]: > 100 µM (inactive)
GI50 [3]: > 100 µM (inactive)
GI50 [4]: > 100 µM (inactive)
GI50 [5]: > 100 µM (inactive)
GI50 [6]: > 100 µM (inactive)
GI50 [7]: > 100 µM (inactive)
GI50 [8]: > 100 µM (inactive)
GI50 [9]: > 100 µM (inactive)
GI50 [10]: > 100 µM (inactive)
GI50 [11]: > 100 µM (inactive)
GI50 [12]: > 100 µM (inactive)
GI50 [13]: > 100 µM
GI50 [14]: > 100 µM (inactive)
GI50 [15]: 39.4 µM (inactive)
GI50 [16]: > 100 µM (inactive)
GI50 [17]: > 100 µM (inactive)
GI50 [18]: > 100 µM (inactive)
GI50 [19]: > 100 µM (inactive)
GI50 [20]: > 100 µM (inactive)
GI50 [21]: > 100 µM (inactive)
GI50 [22]: > 100 µM (inactive)
GI50 [23]: > 100 µM (inactive)
GI50 [24]: > 100 µM (inactive)
GI50 [25]: > 100 µM (inactive)
GI50 [26]: > 100 µM (inactive)
GI50 [27]: > 100 µM (inactive)
GI50 [28]: > 100 µM (inactive)
GI50 [29]: > 100 µM (inactive)
GI50 [30]: > 100 µM (inactive)
GI50 [31]: > 100 µM (inactive)
GI50 [32]: > 100 µM (inactive)
GI50 [33]: > 100 µM (inactive)
GI50 [34]: > 100 µM (inactive)
GI50 [35]: > 100 µM (inactive)
GI50 [36]: > 100 µM (inactive)
GI50 [37]: > 100 µM (inactive)
GI50 [38]: > 100 µM (inactive)
GI50 [39]: > 100 µM (inactive)
GI50 [40]: > 100 µM (inactive)
GI50 [41]: > 100 µM (inactive)
GI50 [42]: > 100 µM (inactive)
GI50 [43]: > 100 µM (inactive)
GI50 [44]: > 100 µM (inactive)
GI50 [45]: > 100 µM (inactive)
GI50 [46]: > 100 µM (inactive)
GI50 [47]: > 100 µM (inactive)
GI50 [48]: > 100 µM (inactive)
GI50 [49]: > 100 µM (inactive)
GI50 [50]: > 100 µM (inactive)
GI50 [51]: > 100 µM (inactive)
GI50 [52]: > 100 µM (inactive)
GI50 [53]: > 100 µM (inactive)
GI50 [54]: > 100 µM (inactive)
GI50 [55]: > 100 µM (inactive)
GI50 [56]: > 100 µM (inactive)
GI50 [57]: > 100 µM (inactive)
GI50 [58]: > 100 µM (inactive)
GI50 [59]: > 100 µM (inactive)

COc1ccc(-c2nc(N)c(C#N)c3c2CCSc2ccc(C)cc2-3)cc1OC
GI50 [1]: 15 µM (inactive)
GI50 [2]: 22.5 µM (inactive)
GI50 [3]: 12.3 µM (inactive)
GI50 [4]: 19.9 µM (inactive)
GI50 [5]: 8.59 µM (inactive)
GI50 [6]: 19.6 µM (inactive)
GI50 [7]: 4.12 µM (inactive)
GI50 [8]: 5.51 µM (inactive)
GI50 [9]: 14.8 µM (inactive)
GI50 [10]: 17.9 µM (inactive)
GI50 [11]: 16.3 µM (inactive)
GI50 [12]: 10.8 µM (inactive)
GI50 [13]: 9.4 µM
GI50 [14]: 2.89 µM (inactive)
GI50 [15]: 42.8 µM (inactive)
GI50 [16]: 10.1 µM (inactive)
GI50 [17]: 14.2 µM (inactive)
GI50 [18]: 8.2 µM (inactive)
GI50 [19]: 23.1 µM (inactive)
GI50 [20]: 1.24 µM (inactive)
GI50 [21]: 6.84 µM (inactive)
GI50 [22]: 14.8 µM (inactive)
GI50 [23]: 29.1 µM (inactive)
GI50 [24]: 12.1 µM (inactive)
GI50 [25]: 8.22 µM (inactive)
GI50 [26]: 4.61 µM (inactive)
GI50 [27]: 3.79 µM (inactive)
GI50 [28]: 3.49 µM (inactive)
GI50 [29]: 20.5 µM (inactive)
GI50 [30]: 14.8 µM (inactive)
GI50 [31]: 8.04 µM (inactive)
GI50 [32]: 18.5 µM (inactive)
GI50 [33]: 5.89 µM (inactive)
GI50 [34]: 12.3 µM (inactive)
GI50 [35]: 20.7 µM (inactive)
GI50 [36]: 16.7 µM (inactive)
GI50 [37]: 47.2 µM (inactive)
GI50 [38]: 22.4 µM (inactive)
GI50 [39]: 8.51 µM (inactive)
GI50 [40]: 0.594 µM (active)
GI50 [41]: 13.7 µM (inactive)
GI50 [42]: 17.2 µM (inactive)
GI50 [43]: 6.67 µM (inactive)
GI50 [44]: 17.1 µM (inactive)
GI50 [45]: 39.7 µM (inactive)
GI50 [46]: 25.4 µM (inactive)
GI50 [47]: 6.18 µM (inactive)
GI50 [48]: 10.9 µM (inactive)
GI50 [49]: 17.3 µM (inactive)
GI50 [50]: 31.3 µM (inactive)
GI50 [51]: 10.7 µM (inactive)
GI50 [52]: 2.6 µM (inactive)
GI50 [53]: 22.1 µM (inactive)
GI50 [54]: 4.17 µM (inactive)
GI50 [55]: 26.4 µM (inactive)
GI50 [56]: 18.1 µM (inactive)
GI50 [57]: 13.8 µM (inactive)
GI50 [58]: 10.9 µM (inactive)
GI50 [59]: 4.16 µM (inactive)
